Source: patent US10899710B2, “Pyridines and their use in the treatment of cancer” (The United States of America, as represented by the …, priority 2015, dated 2021)
Where a name gives a salt, the structure may show the parent alone.

Legend:
Assay type in all cases: cell-based
PC-3 = assay: Growth inhibition GI50, PC-3; conditions: Homo sapiens, Prostate Cancer
Description: (§1) Cell lines were plated 2000 cells/well in 96-well black optical plates in the presence of 10% FBS media containing 25 nM selenite. The following day cells were treated with various concentrations of the compound of Example 1 (0.1% DMSO final) and incubated for 72 hrs. After the incubation Cell-Quanti Blue reagent was added to each well and incubated for additional 3 hrs. Fluorescence was read ex:530 nm/em:590 nm, and percent of viability was determined using DMSO vehicle and no cell (blank) controls.
(§2) Further results obtained in similar experiments were as indicated below (GI50 refers to concentration of compound yielding 50% growth inhibition; E denotes an exponent to the base 10).

SK-MEL-28 = assay: Growth inhibition GI50, SK-MEL-28; conditions: Homo sapiens, Melanoma
Description: as §1, §2

BT-549 = assay: Growth inhibition GI50, BT-549; conditions: Homo sapiens, Breast Cancer
Description: as §1, §2

HCT-15 = assay: Growth inhibition GI50, HCT-15; conditions: Homo sapiens, Colon Cancer
Description: as §1, §2

SF-539 = assay: Growth inhibition GI50, SF-539; conditions: Homo sapiens, CNS Cancer
Description: as §1, §2

K-562 = assay: Growth inhibition GI50, K-562; conditions: Homo sapiens, K562, Leukemia
Description: as §1, §2

RPMI-8226 = assay: Growth inhibition GI50, RPMI-8226; conditions: Homo sapiens, Leukemia
Description: as §1, §2

OVCAR-3 = assay: Growth inhibition GI50, OVCAR-3; conditions: Homo sapiens, Ovarian Cancer
Description: as §1, §2

SNB-75 = assay: Growth inhibition GI50, SNB-75; conditions: Homo sapiens, CNS Cancer
Description: as §1, §2

SK-MEL-5 = assay: Growth inhibition GI50, SK-MEL-5; conditions: Homo sapiens, Melanoma
Description: as §1, §2

SN12C = assay: Growth inhibition GI50, SN12C; conditions: Homo sapiens, Renal Cancer
Description: as §1, §2

MDA-MB-435 = assay: Growth inhibition GI50, MDA-MB-435; conditions: Homo sapiens, Melanoma
Description: as §1, §2

NCI-H460 = assay: Growth inhibition GI50, NCI-H460; conditions: Homo sapiens, Non-Small Cell Lung Cancer
Description: as §1, §2

UACC-257 = assay: Growth inhibition GI50, UACC-257; conditions: Homo sapiens, Melanoma
Description: as §1, §2

A549/ATCC = assay: Growth inhibition GI50, A549/ATCC; conditions: Homo sapiens, Non-Small Cell Lung Cancer
Description: as §1, §2

FaDu cell line = assay: Cell viability inhibition, FaDu cell line; conditions: Homo sapiens, Biological Example 4, 72 hrs
Description: as §1
Using the assays described in Biological Example 1 to assess inhibition of recombinant TrxR1 and GR, the following IC50 values were obtained for the examples described herein. Further, following the protocol described in Biological Example 2, the following IC50 values were obtained for inhibition of cell viability using the FaDu cell line.

SK-MEL-2 = assay: Growth inhibition GI50, SK-MEL-2; conditions: Homo sapiens, Melanoma
Description: as §1, §2

U251 = assay: Growth inhibition GI50, U251; conditions: Homo sapiens, U-251, CNS Cancer
Description: as §1, §2

MDA-MB-231/ATCC = assay: Growth inhibition GI50, MDA-MB-231/ATCC; conditions: Homo sapiens, Breast Cancer
Description: as §1, §2

HL-60(TB) = assay: Growth inhibition GI50, HL-60(TB); conditions: Homo sapiens, Leukemia
Description: as §1, §2

NCI-H322M = assay: Growth inhibition GI50, NCI-H322M; conditions: Homo sapiens, Non-Small Cell Lung Cancer
Description: as §1, §2

CCRF-CEM = assay: Growth inhibition GI50, CCRF-CEM; conditions: Homo sapiens, Leukemia
Description: as §1, §2

UO-31 = assay: Growth inhibition GI50, UO-31; conditions: Homo sapiens, Renal Cancer
Description: as §1, §2

IGROV1 = assay: Growth inhibition GI50, IGROV1; conditions: Homo sapiens, IGROV-1, Ovarian Cancer
Description: as §1, §2

786-0 = assay: Growth inhibition GI50, 786-0; conditions: Homo sapiens, Renal Cancer
Description: as §1, §2

HOP-92 = assay: Growth inhibition GI50, HOP-92; conditions: Homo sapiens, Non-Small Cell Lung Cancer
Description: as §1, §2

SR = assay: Growth inhibition GI50, SR; conditions: Homo sapiens, Leukemia
Description: as §1, §2

NCI-H23 = assay: Growth inhibition GI50, NCI-H23; conditions: Homo sapiens, Non-Small Cell Lung Cancer
Description: as §1, §2

KM12 = assay: Growth inhibition GI50, KM12; conditions: Homo sapiens, Colon Cancer
Description: as §1, §2

NCI/ADR-RES = assay: Growth inhibition GI50, NCI/ADR-RES; conditions: Homo sapiens, Ovarian Cancer
Description: as §1, §2

DU-145 = assay: Growth inhibition GI50, DU-145; conditions: Homo sapiens, Prostate Cancer
Description: as §1, §2

MALME-3M = assay: Growth inhibition GI50, MALME-3M; conditions: Homo sapiens, Melanoma
Description: as §1, §2

COLO 205 = assay: Growth inhibition GI50, COLO 205; conditions: Homo sapiens, Colon Cancer
Description: as §1, §2

SF-268 = assay: Growth inhibition GI50, SF-268; conditions: Homo sapiens, CNS Cancer
Description: as §1, §2

OVCAR-4 = assay: Growth inhibition GI50, OVCAR-4; conditions: Homo sapiens, Ovarian Cancer
Description: as §1, §2

SF-295 = assay: Growth inhibition GI50, SF-295; conditions: Homo sapiens, CNS Cancer
Description: as §1, §2

NCI-H226 = assay: Growth inhibition GI50, NCI-H226; conditions: Homo sapiens, Non-Small Cell Lung Cancer
Description: as §1, §2

M14 = assay: Growth inhibition GI50, M14; conditions: Homo sapiens, Melanoma
Description: as §1, §2

OVCAR-5 = assay: Growth inhibition GI50, OVCAR-5; conditions: Homo sapiens, Ovarian Cancer
Description: as §1, §2

`COc1ccc([N+](=O)[O-])c(S(=O)(=O)c2ccc(Cl)cc2)n1` [Example 1, 2-((4-Chlorophenyl)sulphonyl)-6-methoxy-3-nitropyridine Hydrochloride] was tested, and the GI50 (PC-3) was 17.3 µM, the GI50 (SK-MEL-28) was 3.57 µM and the GI50 (BT-549) was 2.75 µM. The GI50 (HCT-15) was 2.05 µM, the GI50 (SF-539) was 3.39 µM and the GI50 (K-562) was 3.02 µM. For the same molecule, the GI50 (RPMI-8226) was 3.38 µM, the GI50 (OVCAR-3) was 2.33 µM and the GI50 (SNB-75) was 11 µM. For the same molecule, the GI50 (SK-MEL-5) was 12 µM, the GI50 (SN12C) was 3.82 µM and the GI50 (MDA-MB-435) was 1.75 µM. It also gave a GI50 (NCI-H460) of 14.6 µM, a GI50 (UACC-257) of 11.3 µM and a GI50 (A549/ATCC) of 18.5 µM. It also gave an IC50 (FaDu cell line) of 2.99 µM, a GI50 (SK-MEL-2) of 11.4 µM and a GI50 (U251) of 8.69 µM. The GI50 (MDA-MB-231/ATCC) was 2.83 µM, the GI50 (HL-60(TB)) was 6.81 µM and the GI50 (NCI-H322M) was 20.4 µM. The GI50 (CCRF-CEM) was 2.93 µM, the GI50 (UO-31) was 2.97 µM and the GI50 (IGROV1) was 12.2 µM. For the same molecule, the GI50 (786-0) was 2.51 µM, the GI50 (HOP-92) was 2 µM and the GI50 (SR) was 2.99 µM. It also gave a GI50 (NCI-H23) of 4.58 µM, a GI50 (KM12) of 14 µM and a GI50 (NCI/ADR-RES) of 4.93 µM. For the same molecule, the GI50 (DU-145) was 9.63 µM, the GI50 (MALME-3M) was 2 µM and the GI50 (COLO 205) was 1.96 µM. For the same molecule, the GI50 (SF-268) was 4.57 µM, the GI50 (OVCAR-4) was 2.32 µM and the GI50 (SF-295) was 13.1 µM. For the same molecule, the GI50 (NCI-H226) was 10.2 µM, the GI50 (M14) was 3.05 µM and the GI50 (OVCAR-5) was 3.13 µM.
